# US9492482B2, “Engineered cells expressing multiple immunomodulators and uses thereof” (Intrexon Corporation, priority 2008, dated 2016)
# System: DC.RheoIL12
# Experiment: IL-12 secretion from DC.RheoIL12 with or without activating ligand
# Type: cell-based
# Conditions: in the presence of the activating ligand RG-115830 but not in the absence of the ligand
# Method: In one embodiment, the invention provides an engineered population of immune cells and TSC. In one embodiment, day 7 cultured DC are treated with recombinant adenovirus encoding an immunomodulator and/or IL-12 driven off a constitutive or inducible promoter, or are infected with mock, control adenovirus vector (rAdψ5), over a range of multiplicity of infection (MOIs). After 48 h, infected DC are harvested and analyzed for phenotype and for production of an immunomodulator and/or IL-12 using a specific ELISA kit (BD-PharMingen, San Diego, Calif.), with a lower level of detection of 62.5 pg/ml.
compound,measurement,value
"CCCC(N(NC(=O)c1cccc(OC)c1CC)C(=O)c1cc(C)cc(C)c1)C(C)(C)C (stereo not shown) [RG-115830, 3,5-Dimethyl-benzoic acid N-(1-tert-butyl-butyl)-N′-(2-ethyl-3-methoxy-benzoyl)-hydrazide]",IL-12 secreted from DC.RheoIL12,elevated levels of IL-12 are secreted
